Measurements published in US20240092761A1, “QUINAZOLINE COMPOUNDS AND METHODS OF USE” (IAMBIC THERAPEUTICS, INC., priority 2022, published 2024).

Key:
[1] = tested on: MCF-7 cells; test: Cell Growth Inhibition, MCF-7 (CellTiterGlo, 6 days); assay type: cell-based; conditions: MCF-7, 6-day treatment, CellTiterGlo 2.0
Text: (§1) MCF-7 and OVCAR-3 cells were used to evaluate the anti-proliferation activity of the CDK inhibitors. MCF-7 (ATCC, HTB-22) cells are epithelial cells from a patient with ER+ metastatic adenocarcinoma. OVCAR-3 (ATCC, HTB-161) cells were derived from malignant ascites of a patient with ovarian cancer and are known to have CCNE1 amplification. Both cell lines were maintained in RPMI media supplemented with 10% fetal bovine serum. For cell growth inhibition assay, CDK inhibitors in DMSO solution were dispensed with either Echo 655 (Beckman Coulter) or Tecan D300e (HP) into 384-well plates (Corning #3765) and the 384-well plates were UV-sterilized prior to the assay. The inhibitors were typically tested in the 10-10,000 nM concentration range with half-log serial dilutions. MCF-7 or OVCAR-3 (500 cells/30 μL/well) were added to each well using Multidrop Combi (ThermoFisher) using standard cassettes. The assay plates with cells were cultured at 37° C., 5% CO2 for 6 days. At the end of the 6-day treatment, 30 μL of CellTiterGlo 2.0 (Promega) was added to each well and the luminescent signal was read using CLARIOstar plus (BMG). The percentage of cell growth inhibition (% CGI) was calculated using the following formula % CGI=100−100×luminescencesample/luminescencecontrol. The half maximal inhibitory concentration (IC50) was determined by nonlinear curve fitting (four parameters, variable slope).

[2] = tested on: OVCAR-3 cells; test: Cell Growth Inhibition, OVCAR-3 (CellTiterGlo, 6 days); assay type: cell-based; conditions: OVCAR-3, 6-day treatment, CellTiterGlo 2.0
Text: as §1

[3] = biological target: CDK4/Cyclin D1 (Homo sapiens (Human), UniProt P11802); test: CDK4/Cyclin D1 CHEF Assay (AQT0258 peptide); assay type: biochemical; conditions: 200 uM ATP, read-out: CDK4/ CyclinD1 AQT IC50
CDK4/Cyclin D1, sequence (P11802 whole entry): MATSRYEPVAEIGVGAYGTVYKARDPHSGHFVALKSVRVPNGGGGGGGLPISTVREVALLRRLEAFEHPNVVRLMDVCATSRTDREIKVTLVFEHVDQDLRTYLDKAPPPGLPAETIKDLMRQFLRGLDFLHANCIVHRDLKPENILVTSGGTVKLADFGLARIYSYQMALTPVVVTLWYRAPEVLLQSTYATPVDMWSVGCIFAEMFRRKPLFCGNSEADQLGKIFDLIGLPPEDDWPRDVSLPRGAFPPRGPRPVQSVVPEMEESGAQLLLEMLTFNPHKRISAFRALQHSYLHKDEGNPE
CDK4/Cyclin D1, sequence (P24385 whole entry partner): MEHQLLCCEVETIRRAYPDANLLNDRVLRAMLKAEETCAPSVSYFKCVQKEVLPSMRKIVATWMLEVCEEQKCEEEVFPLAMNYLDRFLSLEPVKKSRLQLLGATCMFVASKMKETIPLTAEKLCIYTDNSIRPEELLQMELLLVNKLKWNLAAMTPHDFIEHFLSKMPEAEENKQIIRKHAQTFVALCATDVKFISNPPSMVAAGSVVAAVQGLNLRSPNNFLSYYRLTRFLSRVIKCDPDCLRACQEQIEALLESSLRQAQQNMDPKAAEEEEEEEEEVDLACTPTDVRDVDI
Text: CDK4/Cyclin D1 CHEF Assay
The purpose of CDK4/Cyclin Dl assay is to evaluate the inhibition (% inhibition and IC50 values) of small molecule inhibitors by using a Chelation-Enhance Fluorescence (CHEF) assay. In a CHEF assay, phosphorylation of a peptide substrate results in proportional increase in fluorescence. CHEF kinase assay use peptide substrates containing a synthetic alpha-amino acid with a side chain bearing an 8-hydroxyquinoline derivative (sulfonamido-oxide, Sox). Upon phosphorylation of a nearby serine, threonine or tyrosine and in the presence of Mg(II), the spectral properties of the Sox residue are altered, emitting 485 nm wavelength light when excited with a 360 nm wavelength light source. CDK4/Cyclin D1 catalyzes the phosphoryl transfer to the SOX-labeled substrate peptide AQT0258 from Assayquant Technologies. Typical reaction solutions contained 2% DMSO (+/−inhibitor), 10 mM MgCl2, 1 mM DTT, 200 uM ATP (ATP Km=195.2 uM), 0.012% Brig-35, 10 uM AQT0258 peptide, 0.02% BSA, 1% Glycerol, 0.55 mM EGTA, 2.5 nM CDK4/Cyclin D1 in 54 mM HEPES buffer at pH 7.5. The reaction was initiated with the addition of substrate solution, following a 30-minute pre-incubation of enzyme and inhibitor at 22° C. in the reaction mix. Reactions were allowed to proceed for 3 hrs at 22° C., followed by fluorescence read of the reaction. The IC50 determinations were made from a plot of the fractional velocity as a function of inhibitor concentration fit to the 4 parameters IC50 equation.

[4] = biological target: CDK6/Cyclin D3 (Homo sapiens (Human), UniProt Q00534); test: CDK6/Cyclin D3 ADP-Glo Kinase Assay; assay type: biochemical; conditions: 100 uM ATP, read-out: CDK6/ CyclinD3 IC50
CDK6/Cyclin D3, sequence (Q00534 whole entry): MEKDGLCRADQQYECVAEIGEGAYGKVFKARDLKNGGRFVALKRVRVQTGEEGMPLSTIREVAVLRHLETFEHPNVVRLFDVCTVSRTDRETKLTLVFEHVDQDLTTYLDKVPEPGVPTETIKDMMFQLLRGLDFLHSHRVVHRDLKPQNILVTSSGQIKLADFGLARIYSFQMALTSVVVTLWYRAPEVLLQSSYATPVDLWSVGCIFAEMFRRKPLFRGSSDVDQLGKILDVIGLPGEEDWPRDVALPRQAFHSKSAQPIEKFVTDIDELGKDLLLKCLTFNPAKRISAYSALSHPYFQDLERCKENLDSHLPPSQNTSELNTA
CDK6/Cyclin D3, sequence (P30281 whole entry partner): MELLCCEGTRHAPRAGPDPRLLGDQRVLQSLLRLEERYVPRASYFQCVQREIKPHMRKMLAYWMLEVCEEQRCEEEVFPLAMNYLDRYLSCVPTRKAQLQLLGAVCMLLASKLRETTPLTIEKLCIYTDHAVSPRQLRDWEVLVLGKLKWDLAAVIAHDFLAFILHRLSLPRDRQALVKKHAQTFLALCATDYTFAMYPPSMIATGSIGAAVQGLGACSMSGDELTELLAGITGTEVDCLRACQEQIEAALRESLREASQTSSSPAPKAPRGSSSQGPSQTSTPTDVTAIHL
Description: CDK6/Cyclin D3 ADP-Glo Kinase Assay
The purpose of the CDK6/Cyclin D3 assay is to evaluate the inhibition (% inhibition and IC50 values) in the presence of small molecule inhibitors by using a Luminescent based ADP-Glo assay. CDK6/Cyclin D3 catalyzes the production of ADP from ATP. ADP-Glo assay monitors ADP producing biochemical reactions. ADP-Glo is performed in 2 steps upon completion of kinase reaction: a combined termination of kinase reaction and depletion of remaining ATP in the first step, and conversion of generated ADP to ATP and the newly produced ATP to light output using luciferase/luciferin reaction in the second step. The luminescent signal generated is proportional to the ADP concentration produced and is correlated with the kinase activity. CDK6/Cyclin D3 was purchased from Carna. […] The assay was initiated with the addition of ATP-containing substrate solution, following a 30-minute pre-incubation of enzyme and inhibitor at room temperature in the reaction mixture. The reaction was stopped after 90 minutes at room temperature by the addition of 10 uL of ADP-GLO Reagent. After a 90-minute incubation, 20 uL of Kinase Detection Reagent was added. Samples were incubated for 40 minutes, after which plate well luminescence was measured on a Envision microplate reader. The IC50 determinations were made from a plot of the fractional velocity as a function of inhibitor concentration fit to the 4 parameters IC50 equation.

[5] = biological target: CDK2/Cyclin E1 full length (Homo sapiens (Human), UniProt P24941); test: CDK2/Cyclin E1 Full Length ADP-Glo Kinase Assay; assay type: biochemical; conditions: 20 uM ATP, read-out: CDK2/ CyclinE1 IC50
Description: CDK2/Cyclin E1 Full Length ADP-Glo Kinase Assay
The purpose of CDK2/Cyclin E1 assay is to evaluate the inhibition (% inhibition and IC50 values) of small molecule inhibitors by using a Luminescent based ADP-Glo assay. CDK2/Cyclin E1 full length catalyzes the production of ADP from ATP. ADP-Glo assay monitors ADP producing biochemical reactions. ADP-Glo is performed in 2 steps upon completion of kinase reaction: a combined termination of kinase reaction and depletion of remaining ATP in the first step, and conversion of generated ADP to ATP and the newly produced ATP to light output using luciferase/luciferin reaction in the second step. The luminescent signal generated is proportional to the ADP concentration produced and is correlated with the kinase activity. CDK2/Cyclin E1 was purchased from Eurofins (Cat 14-475M). Typical reaction solutions (10 uL final reaction volume) contained 2% DMSO (f inhibitor), 10 mM MgCI2, 1 mM EGTA, 0.05% BSA, 2 mM DTT, 20 uM ATP (ATP Km=64.78 uM), 0.01% Brig-35, 0.75 uM substrate, and 0.328 nM wild-type full length CDK2/Cyclin E1 enzyme complex in 50 mM HEPES buffer at pH 7.5. The assay was initiated with the addition of ATP-containing substrate solution, following a 30-minute pre-incubation of enzyme and inhibitor at room temperature in the reaction mixture. The reaction was stopped after 90 minutes at room temperature by the addition of 10 uL of ADP-GLO Reagent. After a 90 minute incubation, 20 uL of Kinase Detection Reagent was added. Samples were incubated for 40 minutes, after which plate well luminescence was measured on a Envision microplate reader. The IC50 determinations were made from a plot of the fractional velocity as a function of inhibitor concentration fit to the 4 parameters IC50 equation.

[6] = biological target: CDK1/Cyclin B1 (Homo sapiens (Human), UniProt P06493); test: CDK1/Cyclin B1 ADP-Glo Kinase Assay; assay type: biochemical; conditions: 80 uM ATP
CDK1/Cyclin B1, sequence (P06493 whole entry): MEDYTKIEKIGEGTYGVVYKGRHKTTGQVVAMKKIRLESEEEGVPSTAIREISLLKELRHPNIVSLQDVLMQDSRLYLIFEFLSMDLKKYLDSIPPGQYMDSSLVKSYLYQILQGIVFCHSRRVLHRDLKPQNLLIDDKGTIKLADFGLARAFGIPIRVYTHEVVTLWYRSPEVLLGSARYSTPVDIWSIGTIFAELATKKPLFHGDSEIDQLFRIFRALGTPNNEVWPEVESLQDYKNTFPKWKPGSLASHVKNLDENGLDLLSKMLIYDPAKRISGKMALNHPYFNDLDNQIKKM
CDK1/Cyclin B1, sequence (P14635 whole entry partner): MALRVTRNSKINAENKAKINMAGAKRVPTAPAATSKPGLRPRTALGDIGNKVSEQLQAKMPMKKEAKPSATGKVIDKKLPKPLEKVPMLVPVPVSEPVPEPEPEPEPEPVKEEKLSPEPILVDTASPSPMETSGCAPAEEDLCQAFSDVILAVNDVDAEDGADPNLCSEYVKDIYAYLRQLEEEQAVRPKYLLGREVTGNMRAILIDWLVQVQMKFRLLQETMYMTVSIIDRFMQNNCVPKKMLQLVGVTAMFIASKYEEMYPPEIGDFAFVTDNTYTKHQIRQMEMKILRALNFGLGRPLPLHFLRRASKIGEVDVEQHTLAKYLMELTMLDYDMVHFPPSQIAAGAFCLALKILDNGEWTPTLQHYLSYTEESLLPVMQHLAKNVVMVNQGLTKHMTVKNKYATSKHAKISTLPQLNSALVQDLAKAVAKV
Description: CDK1/Cyclin B1 ADP-Glo Kinase Assay
The purpose of CDK1/Cyclin B1 assay is to evaluate the inhibition (% inhibition and IC50 values) of small molecule inhibitors by using a Luminescent based ADP-Glo assay. CDK1/Cyclin B1 catalyzes the production of ADP from ATP. ADP-Glo assay monitors ADP producing biochemical reactions. ADP-Glo is performed in 2 steps upon completion of kinase reaction: a combined termination of kinase reaction and depletion of remaining ATP in the first step, and conversion of generated ADP to ATP and the newly produced ATP to light output using luciferase/luciferin reaction in the second step. The luminescent signal generated is proportional to the ADP concentration produced and is correlated with the kinase activity. CDK1/Cyclin B1 was purchased from Carna (Cat 04-102). Typical reaction solutions (10 uL final reaction volume) contained 2% DMSO (f inhibitor), 10 mM MgCl2, 1 mM EGTA, 0.05% BSA, 2 mM DTT, 80 uM ATP (ATP Km=78.6 uM), 0.01% Brig-35, 0.75 uM substrate, and 4.917 nM CDK1/Cyclin Bl enzyme complex in 50 mM HEPES buffer at pH 7.5. The assay was initiated with the addition of ATP-containing substrate solution, following a 30-minute pre-incubation of enzyme and inhibitor at room temperature in the reaction mixture. The reaction was stopped after 90 minutes at room temperature by the addition of 10 uL of ADP-GLO Reagent. After a 90 minute incubation, 20 uL of Kinase Detection Reagent was added. Samples were incubated for 40 minutes, after which plate well luminescence was measured on a Envision microplate reader. The IC50 determinations were made from a plot of the fractional velocity as a function of inhibitor concentration fit to the 4 parameters IC50 equation.

SMILES | IC50 ([1]; Homo sapiens, MCF7, 144 h) [nM] | IC50 ([2]; Homo sapiens, 144 h) [nM] | IC50 [3] [nM] | IC50 [4] [nM] | IC50 [5] [nM] | IC50 [6] [nM] | IC50 [1] [nM] | IC50 [2] [nM]
O[C@@H]1COCC[C@H]1Nc1ncc2cc(C(F)F)cc(N3CC(F)(F)C4(CNC4)C3)c2n1 (racemic) [Example 117, (3S,4R)-4-((8-(8,8-difluoro-2,6-diazaspiro[3.4]octan-6-yl)-6-(difluoromethyl)quinazolin-2-yl)amino)tetrahydro-2H-pyran-3-ol] | 500 to 2000 | > 2000 | < 200 | < 200 | < 200 | > 2000 |  | 
CS(=O)(=O)N1CC[C@@H](Nc2ncc3cc(C(F)F)cc(N4CC(F)(F)C5(CNC5)C4)c3n2)[C@H](O)C1 (racemic) [Example 118, (3R,4R)-4-((8-(8,8-difluoro-2,6-diazaspiro[3.4]octan-6-yl)-6-(difluoromethyl)quinazolin-2-yl)amino)-1-(methylsulfonyl)piperidin-3-ol] |  | > 2000 | < 200 | < 200 | < 200 | 500 to 2000 |  | 
CC(=O)N1CCC2(CCC(c3cccc4cnc(NC5CCN(S(C)(=O)=O)CC5)nc34)C2)C1 (stereo not shown) [Example 35] | 500 to 2000 | > 2000 |  | < 200 | < 200 | 200 to 500 |  | 
CN1C[C@@H]2C(Nc3ncc4cc(C(F)F)cc(N5CCC6(CCN(S(C)(=O)=O)C6)C5)c4n3)[C@@H]2C1 (stereo partly drawn) [Example 56, 6-(difluoromethyl)-N-((1R,5S,6s)-3-methyl-3-azabicyclo[3.1.0]hexan-6-yl)-8-(7-(methylsulfonyl)-2,7-diazaspiro[4.4]nonan-2-yl)quinazolin-2-amine] |  |  | 200 to 500 | > 2000 | > 2000 | > 2000 | > 2000 | > 2000
CN1Cc2ccc(Nc3ncc4cc(C(F)F)cc(N5CC6(CN(C)C6)C5)c4n3)cc2C1 [Example 57, 6-(difluoromethyl)-8-(6-methyl-2,6-diazaspiro[3.3]heptan-2-yl)-N-(2-methylisoindolin-5-yl)quinazolin-2-amine] | 500 to 2000 | 500 to 2000 | < 200 | < 200 | < 200 | > 2000 |  | 
CN1CC2(CC(c3cc(C(F)F)cc4cnc(NC5CCN(S(C)(=O)=O)CC5)nc34)C2)C1 [Example 67, 6-(difluoromethyl)-8-(2-methyl-2-azaspiro[3.3]heptan-6-yl)-N-(1-(methylsulfonyl)piperidin-4-yl)quinazolin-2-amine] | < 200 | < 200 |  |  | < 200 | < 200 |  | 
COC1CC2(C1)CC(c1cccc3cnc(NC4CCN(S(C)(=O)=O)CC4)nc13)C2 (stereo not shown) [Example 107, 8-(6-methoxyspiro[3.3]heptan-2-yl)-N-(1-(methylsulfonyl)piperidin-4-yl)quinazolin-2-amine] |  |  | < 200 | < 200 | < 200 | 500 to 2000 |  | 
COC1CC2(C1)CC(c1cc(C(F)F)cc3cnc(NC4CCN(S(C)(=O)=O)CC4)nc13)C2 (stereo not shown) [Example 108, 6-(difluoromethyl)-8-(6-methoxyspiro[3.3]heptan-2-yl)-N-(1-(methylsulfonyl)piperidin-4-yl)quinazolin-2-amine] |  |  | < 200 | < 200 | < 200 | < 200 |  | 
Cn1cc(S(=O)(=O)N2CCC(Nc3ncc4cccc(N5CC(O)(C(F)F)C5)c4n3)CC2)cn1 [Example 119, 3-(difluoromethyl)-1-(2-((1-((1-methyl-1H-pyrazol-4-yl)sulfonyl)piperidin-4-yl)amino)quinazolin-8-yl)azetidin-3-ol] |  | 500 to 2000 | < 200 | < 200 | < 200 | < 200 |  | 
CS(=O)(=O)N1CCC(Nc2ncc3cccc(C4CC5(CNCC5(F)F)C4)c3n2)CC1 (stereo not shown) [Example 122, 8-(8,8-difluoro-6-azaspiro[3.4]octan-2-yl)-N-(1-(methylsulfonyl)piperidin-4-yl)quinazolin-2-amine] |  |  | < 200 | < 200 | < 200 | < 200 |  | 
